Data as given in patent publication US20110257170A1, “4-MORPHOLINO-PYRIDO[3,2-D]PYRIMIDINES” (MERCK SERONO SA, priority 2008, published 2011).

Legend:
[1] = tested on: T1, Human recombinant GST-PI3K; test: PI3K lipid phosphorylation scintillation proximity assay (neomycin-coated SPA beads); format: biochemical; conditions: 120 min at room temperature, isoform not stated
T1 construct: fused on or other part: GST tag
Text: The efficacy of compounds of the invention in inhibiting the PI3K induced-lipid phosphorylation may be tested in the following binding assay. The assay combines the scintillation proximity assay technology (SPA, Amersham) with the capacity of neomycin (a polycationic antibiotic) to bind phospholipids with high affinity and specificity. The Scintillation Proximity Assay is based on the properties of weakly emitting isotopes (such as ^3H, ^125I, ^33P). Coating SPA beads with neomycin allows the detection of phosphorylated lipid substrates after incubation with recombinant PI3K and radioactive ATP in the same well, by capturing the radioactive phospholipids to the SPA beads through their specific binding to neomycin. […] After precipitation of the neomycin-coated PVT SPA beads for 5 minutes at 1500×g, radioactive Ptdlns(3)P is quantified by scintillation counting in a Wallac MicroBeta™ plate counter. […]

melting point	IC50 [1] [µM]	SMILES
212 to 213 °C (dec.)		COC(=O)c1cc(Cl)c2nc(Cl)nc(N3CCOCC3)c2n1 [Example E-1, Methyl 2,8-dichloro-4-morpholin-4-yl-pyrido[3,2-d]pyrimidine-6-carboxylate]
	8.61	Cc1ccc2nc(Cl)nc(N3CCOCC3)c2n1 [Example E-34, 2-Chloro-6-methyl-4-morpholin-4-ylpyrido[3,2-d]pyrimidine]
